Source: patent publication US20220204509A1, “PYRIMIDO FIVE-MEMBERED HETEROCYCLIC COMPOUND AND USE THEREOF AS MUTANT IDH2 INHIBITOR” (EPITAS BIOSCIENCES (SHANGHAI) CO., LTD., priority 2019, published 2022)
Where a chain is given by its changes, count along the chain named.

How the values were obtained:
IDH2/WT = target: T1, IDH2/WT (Homo sapiens, UniProt P48735); test: Determination of the selectivity of compounds to wild-type IDH2 (IDH2/WT); assay type: biochemical; conditions: Inhibitory activity on IDH2/WT; pre-incubated at 25° C. for 16 hours
T1 construct: made in house; host or cells: E. coli
T1 sequence (P48735 40-452): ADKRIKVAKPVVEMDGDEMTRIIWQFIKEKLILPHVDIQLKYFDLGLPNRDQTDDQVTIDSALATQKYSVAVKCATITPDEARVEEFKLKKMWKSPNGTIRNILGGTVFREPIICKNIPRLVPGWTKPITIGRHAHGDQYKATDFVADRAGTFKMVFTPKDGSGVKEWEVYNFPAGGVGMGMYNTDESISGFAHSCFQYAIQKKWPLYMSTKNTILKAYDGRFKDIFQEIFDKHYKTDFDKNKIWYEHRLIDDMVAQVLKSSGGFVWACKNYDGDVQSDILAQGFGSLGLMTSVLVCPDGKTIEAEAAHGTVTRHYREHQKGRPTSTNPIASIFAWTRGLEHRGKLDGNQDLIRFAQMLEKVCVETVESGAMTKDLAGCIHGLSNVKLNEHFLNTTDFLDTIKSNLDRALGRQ
Description: The compound was incubated with IDH2/WT and NADP, and then the reaction was initiated by adding isocitrate. After a certain time of reaction under linear conditions, lipoamide dehydrogenase and resazurin were added to detect the amount of fluorescent substances. In this experiment, NADP was reduced to NADPH. The latter reduced resazurin to highly fluorescent resorufin under the action of lipoamide dehydrogenase. The production of resorufin was detected to quantify the amount of cofactor NADPH generated after a specific reaction time, so as to calculate the compound's inhibitory effect on IDH2/WT.
Specifically, in a 96-well plate, in a total reaction volume of 50 μL, a mixture of 0.6 nM IDH2/WT, serially diluted inhibitors, and 50 μM NADP in a reaction buffer containing Tris-HCl 20 mM (pH 7.5), 150 mM NaCl, 10 mM MgCl2, 10% Glycerol, 0.03% BSA, and 2.5 mM β-mercaptoethanol, was pre-incubated at 25° C. for 16 hours. Isocitrate was added to 50 μM and the reaction was carried out at 25° C. for 30 minutes. Then 25 μL of a mixed solution (lipoamide dehydrogenase 36 μg/mL, resazurin 30 μM) prepared with the above reaction buffer was added to convert resazurin to resorufin to measure the NADPH produced. After 10 minutes of incubation at 25° C., the fluorescence value was measured by Tecan INFINITE F FLEX under Ex544/Em590. The enzyme activity was measured at 10 concentrations for each compound, and multiple background holes without enzyme and full enzyme activity holes without compound were set up in the reaction. The concentration of dimethyl sulfoxide in the system was less than or equal to 2%. The value of IC50 was obtained by the formula: Y=100/(1+10^((Log IC50−X)*HillSlope)) using XLFit5 software (IDBS Software). In the method, the multi-well plate was purchased from Thermo Fisher Scientific, NADP, α-KG, lipoamide dehydrogenase, and resazurin were purchased from Shenggong Bioengineering Co., Ltd., and IDH2/WT was obtained by purification after E. coli overexpression.

IDH2/R140Q [1] = target: T2, IDH2/R140Q (Homo sapiens, UniProt P48735, R140Q); test: Inhibition of mutant IDH2 activity at the cell level (extracellular 2-HG, U87MG overexpressing IDH2/R140Q); assay type: cell-based; conditions: U87MG overexpressing IDH2/R140Q; 2-HG in medium after 24 hours of culturing with compound; read-out: IC50
T2 sequence (P48735 40-452 R140Q): T1 sequence (P48735 40-452) with R101Q
Description: 2-hydroxyglutarate dehydrogenase (2HGDH) can reduce NAD+ to NADH in the presence of 2-HG. The latter can be quantitatively detected by diaphorase and its substrate Resazurin.
The glioma cells U87MG overexpressing IDH2/R140Q mutation were cultured in 1% sodium pyruvate high-sugar MEM, 10% FBS, and placed in a CO2 incubator (37° C., 5% CO2, 95% air) for cultivation.
The cells were digested with trypsin and seeded in a 96-well plate at a density of 1×10^4 with a medium of 200 μL and cultured in a 37° C. incubator overnight. The next day, the test compound was added to a final concentration of 0.1% for DMSO. […] The protein and other components in the medium that may interfere with the results were filtered, and the follow-up method was used to detect the content of 2-HG. 50 uL CellTiter-Glo (purchased from Promega) was added to the 96-well plate with the remaining 100 μL of medium to detect cell survival;
Extracellular 2-HG detecting system:
(1) 50 μL reaction system: reaction buffer (50 mM Tris pH7.5, 100 mM NaCl, 20 mM MgCl2, 0.05% BSA), in which the final concentration of NAD+ was 40 μM, the final concentration of 2HGDH was 20 nM, and the test sample was added to 5 μL of medium; the reaction solution was mixed and centrifuged, and the reaction was carried out for 1 hour at 25° C. in the dark;
Preparation of 2-HG standard curve: a 2-HG stock solution was diluted to 20 μM with reaction buffer, and a 2-fold gradient diluting was performed for a total of 6 points. Afterwards, the above-mentioned 2-HG was measured according to the extracellular 2-HG detecting system, and a standard curve was calculated and drawn.
Calculation of extracellular 2-HG content:
The fluorescence value obtained in the extracellular 2-HG detecting system was calculated using the 2-HG standard curve to calculate the content of 2-HG in the medium, and DMSO was used as a negative control to calculate the compound's inhibition against IDH2/R140Q mutation producing 2-HG activity.

IDH2/R140Q [2] = target: T2, IDH2/R140Q; test: Determination of the inhibitory activity of the compounds on IDH2/R140Q (NADPH reduction, resazurin/lipoamide dehydrogenase detection); assay type: biochemical; set-up: purchased Abcam ab198153; conditions: IDH2/R140Q inhibitory activity; pre-incubated at 25° C. for 16 hours; read-out: IC50
Description: In this example, the inhibitory activity of a compound on IDH2/R140Q was determined by measuring the reduction of the cofactor NADPH. The compound was incubated with IDH2/R140Q and NADPH, and then the reaction was initiated by adding α-KG. After a certain time of reaction under linear conditions, lipoamide dehydrogenase and the corresponding substrate resazurin were added for detection. Lipoamide dehydrogenase terminated the IDH2/R140Q reaction bγ subtracting the available cofactor NADPH. It oxidized NADPH to NADP, and reduced resazurin to highly fluorescent resorufin. The production of resorufin was detected to quantify the amount of cofactor NADPH remaining after a specific reaction time.
Then 25 μL of a stop mixed solution (lipoamide dehydrogenase 36 μg/mL, resazurin 30 μM) prepared with the above reaction buffer was added to convert resazurin to resorufin to measure the remaining NADPH. After 10 minutes of incubation at 25° C., the fluorescence value was measured by Tecan […] […] The enzyme activity was measured at 10 concentrations for each compound, and multiple background holes without enzyme and full enzyme activity holes without compound were set up in the reaction. The concentration of dimethyl sulfoxide in the system was less than or equal to 2%. […] The multi-well plate in this example was purchased from Thermo Fisher Scientific, NADPH, α-KG, lipoamide dehydrogenase, and resazurin were purchased from Shenggong Bioengineering Co., Ltd., and IDH2/R140Q was purchased from Abcam (ab198153).

IC50 (IDH2/WT): > 5000 nM
IC50 (IDH2/R140Q [1]): 100 to 1000 nM
IC50 (IDH2/R140Q [2]): < 100 nM
SMILES: Cc1cc2c(NC3CCCC3)nc(-c3ccccc3)nc2[nH]1 [Compound 36, N-cyclopentyl-6-methyl-2-phenyl-7H-pyrrolo[2,3-d]pyrimidin-4-amine]
